Results reported in US10597388B2, “Pyridazinone herbicides” (FMC CORPORATION, priority 2014, dated 2020).

Experiments:
Assay in all cases: Test D controlled growth environment herbicide test, pre- and postemergence
Type in all cases: in vivo
[1] = system: Russian thistle (Salsola kali)
Method in brief: (§1)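 Species sown in silt loam and sprayed preemergence, or grown in peat-based medium to 2–18 cm (1- to 4-leaf stage) and sprayed postemergence, with compounds in non-phytotoxic solvent plus surfactant. Visual injury scored versus controls after 14–21 d in a controlled environment, 0 (no effect) to 100 (complete control).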

[2] = system: barley, spring (spring barley, Hordeum vulgare)
Method in brief: as §1

[3] = system: barley, winter (winter barley, Hordeum vulgare)
Method in brief: as §1

[4] = system: bluegrass (annual bluegrass, Poa annua)
Method in brief: as §1

[5] = system: canarygrass (Phalaris minor)
Method in brief: as §1

[6] = system: chickweed (common chickweed, Stellaria media)
Method in brief: as §1

[7] = system: field poppy (Papaver rhoeas)
Method in brief: as §1

[8] = system: field violet (Viola arvensis)
Method in brief: as §1

[9] = system: lambsquarters (Chenopodium album)
Method in brief: as §1

[10] = system: oat, wild (wild oat, Avena fatua)
Method in brief: as §1

[11] = system: radish, wild (wild radish, Raphanus raphanistrum)
Method in brief: as §1

[12] = system: wheat, spring (spring wheat, Triticum aestivum)
Method in brief: as §1

[13] = system: wheat, winter (winter wheat, Triticum aestivum)
Method in brief: as §1

[14] = Postemergence, 31 g ai/ha, scale 0 to 100 (0 no effect, 100 complete control)
[15] = Postemergence, 125 g ai/ha, visual rating on scale 0 (no effect) to 100 (complete control), 14 to 21 d
[16] = Postemergence, 250 g ai/ha, scale 0 to 100 (0 no effect, 100 complete control)
[17] = Preemergence, 125 g ai/ha, scale 0 to 100 (0 no effect, 100 complete control)
[18] = Preemergence, 250 g ai/ha, scale 0 to 100, 0 no effect, 100 complete control
[19] = postemergence, 62 g ai/ha, scale 0 to 100, 0 no effect, 100 complete control
[20] = Preemergence, 62 g ai/ha, scale 0 to 100 (0 no effect, 100 complete control)

Cc1nn(C)c(=O)c(-c2cccc3ccc(Br)cc23)c1O [Compound 126]
Russian Thistle plant response rating [1, 14]: 30
Plant response rating, Russian Thistle [1, 15]: 80
Plant response rating, Russian Thistle [1, 16]: 85
Plant response rating (scale of 0 to 100), Russian Thistle ([1]; Preemergence, 31 g ai/ha): 0
Plant response rating (scale of 0 to 100), Russian Thistle ([1]; Preemergence, 62 g ai/ha): 0
Plant response rating, Russian Thistle [1, 17]: 5
Plant response rating, Russian Thistle [1, 18]: 15
Plant response rating, Russian Thistle [1, 19]: 40
Barley, Spring plant response rating [2, 14]: 0
Plant response rating, Barley, Spring [2, 15]: 10
Plant response rating, Barley, Spring [2, 16]: 10
Plant response rating (scale of 0 to 100), Barley, Spring ([2]; Preemergence, 31 g ai/ha): 0
Plant response rating, Barley, Spring [2, 20]: 0
Plant response rating, Barley, Spring [2, 17]: 0
Plant response rating, Barley, Spring [2, 18]: 0
Plant response rating, Barley, Spring [2, 19]: 0
Barley, Winter plant response rating [3, 14]: 0
Plant response rating, Barley, Winter [3, 15]: 0
Plant response rating, Barley, Winter [3, 16]: 0
Plant response rating (scale of 0 to 100), Barley, Winter ([3]; Preemergence, 31 g ai/ha): 0
Plant response rating, Barley, Winter [3, 20]: 0
Plant response rating, Barley, Winter [3, 17]: 0
Plant response rating, Barley, Winter [3, 18]: 5
Plant response rating, Barley, Winter [3, 19]: 5
Bluegrass plant response rating [4, 14]: 0
Plant response rating, Bluegrass [4, 15]: 15
Plant response rating, Bluegrass [4, 16]: 15
Plant response rating (scale of 0 to 100), Bluegrass ([4]; Preemergence, 31 g ai/ha): 5
Plant response rating, Bluegrass [4, 20]: 5
Plant response rating, Bluegrass [4, 17]: 30
Plant response rating, Bluegrass [4, 18]: 40
Plant response rating, Bluegrass [4, 19]: 10
Canarygrass plant response rating [5, 14]: 20
Plant response rating, Canarygrass [5, 15]: 45
Plant response rating, Canarygrass [5, 16]: 75
Plant response rating (scale of 0 to 100), Canarygrass ([5]; Preemergence, 31 g ai/ha): 15
Plant response rating (scale of 0 to 100), Canarygrass ([5]; Preemergence, 62 g ai/ha): 50
Plant response rating, Canarygrass [5, 17]: 80
Plant response rating, Canarygrass [5, 18]: 90
Plant response rating, Canarygrass [5, 19]: 35
Chickweed plant response rating [6, 14]: 80
Plant response rating, Chickweed [6, 15]: 100
Plant response rating, Chickweed [6, 16]: 100
Plant response rating (scale of 0 to 100), Chickweed ([6]; Preemergence, 31 g ai/ha): 70
Plant response rating (scale of 0 to 100), Chickweed ([6]; Preemergence, 62 g ai/ha): 98
Plant response rating, Chickweed [6, 17]: 100
Plant response rating, Chickweed [6, 18]: 100
Plant response rating, Chickweed [6, 19]: 98
Field Poppy plant response rating [7, 14]: 25
Plant response rating, Field Poppy [7, 15]: 75
Plant response rating, Field Poppy [7, 16]: 85
Plant response rating (scale of 0 to 100), Field Poppy ([7]; Preemergence, 31 g ai/ha): 30
Plant response rating (scale of 0 to 100), Field Poppy ([7]; Preemergence, 62 g ai/ha): 45
Plant response rating, Field Poppy [7, 17]: 90
Plant response rating, Field Poppy [7, 18]: 95
Plant response rating, Field Poppy [7, 19]: 55
Field Violet plant response rating [8, 14]: 85
Plant response rating, Field Violet [8, 15]: 90
Plant response rating, Field Violet [8, 16]: 100
Plant response rating (scale of 0 to 100), Field Violet ([8]; Preemergence, 31 g ai/ha): 85
Plant response rating (scale of 0 to 100), Field Violet ([8]; Preemergence, 62 g ai/ha): 85
Plant response rating, Field Violet [8, 17]: 100
Plant response rating, Field Violet [8, 18]: 100
Plant response rating, Field Violet [8, 19]: 85
Lambsquarters plant response rating [9, 14]: 90
Plant response rating, Lambsquarters [9, 15]: 100
Plant response rating, Lambsquarters [9, 16]: 100
Plant response rating (scale of 0 to 100), Lambsquarters ([9]; Preemergence, 31 g ai/ha): 100
Plant response rating (scale of 0 to 100), Lambsquarters ([9]; Preemergence, 62 g ai/ha): 100
Plant response rating, Lambsquarters [9, 17]: 75
Plant response rating, Lambsquarters [9, 18]: 100
Plant response rating, Lambsquarters [9, 19]: 98
Oat, Wild plant response rating [10, 14]: 60
Plant response rating, Oat, Wild [10, 15]: 80
Plant response rating, Oat, Wild [10, 16]: 90
Plant response rating (scale of 0 to 100), Oat, Wild ([10]; Preemergence, 31 g ai/ha): 65
Plant response rating (scale of 0 to 100), Oat, Wild ([10]; Preemergence, 62 g ai/ha): 70
Plant response rating, Oat, Wild [10, 17]: 80
Plant response rating, Oat, Wild [10, 18]: 90
Plant response rating, Oat, Wild [10, 19]: 70
Radish, Wild plant response rating [11, 14]: 40
Plant response rating, Radish, Wild [11, 15]: 75
Plant response rating, Radish, Wild [11, 16]: 95
Plant response rating (scale of 0 to 100), Radish, Wild ([11]; Preemergence, 31 g ai/ha): 5
Plant response rating (scale of 0 to 100), Radish, Wild ([11]; Preemergence, 62 g ai/ha): 15
Plant response rating, Radish, Wild [11, 17]: 75
Plant response rating, Radish, Wild [11, 18]: 90
Plant response rating, Radish, Wild [11, 19]: 70
Wheat, Spring plant response rating [12, 14]: 0
Plant response rating, Wheat, Spring [12, 15]: 0
Plant response rating, Wheat, Spring [12, 16]: 5
Plant response rating (scale of 0 to 100), Wheat, Spring ([12]; Preemergence, 31 g ai/ha): 0
Plant response rating (scale of 0 to 100), Wheat, Spring ([12]; Preemergence, 62 g ai/ha): 0
Plant response rating, Wheat, Spring [12, 17]: 0
Plant response rating, Wheat, Spring [12, 18]: 0
Plant response rating, Wheat, Spring [12, 19]: 0
Wheat, Winter plant response rating [13, 14]: 0
Plant response rating, Wheat, Winter [13, 15]: 0
Plant response rating, Wheat, Winter [13, 16]: 0
Plant response rating (scale of 0 to 100), Wheat, Winter ([13]; Preemergence, 31 g ai/ha): 0
Plant response rating (scale of 0 to 100), Wheat, Winter ([13]; Preemergence, 62 g ai/ha): 0
Plant response rating, Wheat, Winter [13, 17]: 0
Plant response rating, Wheat, Winter [13, 18]: 0
Plant response rating, Wheat, Winter [13, 19]: 0
